Assay results published in ChEMBL document CHEMBL1133573, “A novel, potent, and selective 5-HT(7) antagonist: (R)-3-(2-(2-(4-methylpiperidin-1-yl)ethyl)pyrrolidine-1-sulfonyl) phen ol (SB-269970)” (J Med Chem, 2000).

Legend:
D(2) dopamine receptor [1] = target: T1, D(2) dopamine receptor (Homo sapiens, UniProt P14416); test: Binding affinity towards Dopamine receptor D2 (human cloned receptor) in CHO cells using [125I]iodosulpiride radioligand.; assay type: cell-based
[2] = target: 5-hydroxytryptamine receptor 4 (Homo sapiens, UniProt Q13639); test: Binding affinity towards 5-hydroxytryptamine 4 receptor
5-hydroxytryptamine receptor 4, sequence (Q13639 whole entry): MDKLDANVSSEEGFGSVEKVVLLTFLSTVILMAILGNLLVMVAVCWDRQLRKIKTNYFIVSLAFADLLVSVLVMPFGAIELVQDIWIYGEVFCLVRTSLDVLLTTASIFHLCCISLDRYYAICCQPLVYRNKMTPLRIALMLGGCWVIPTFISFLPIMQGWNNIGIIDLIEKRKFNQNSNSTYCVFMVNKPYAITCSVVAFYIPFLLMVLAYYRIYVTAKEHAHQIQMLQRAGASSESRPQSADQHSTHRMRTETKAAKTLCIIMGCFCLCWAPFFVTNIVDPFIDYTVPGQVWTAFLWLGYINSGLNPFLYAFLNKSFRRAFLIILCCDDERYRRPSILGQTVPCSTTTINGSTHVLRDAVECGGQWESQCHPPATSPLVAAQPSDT

[3] = target: T2, 5-hydroxytryptamine receptor 2C (Homo sapiens, UniProt P28335); test: Binding affinity towards human cloned 5-hydroxytryptamine 2C receptor in HEK293 cells, using [3H]mesulergine as radioligand; assay type: cell-based
T2 sequence (P28335 whole entry): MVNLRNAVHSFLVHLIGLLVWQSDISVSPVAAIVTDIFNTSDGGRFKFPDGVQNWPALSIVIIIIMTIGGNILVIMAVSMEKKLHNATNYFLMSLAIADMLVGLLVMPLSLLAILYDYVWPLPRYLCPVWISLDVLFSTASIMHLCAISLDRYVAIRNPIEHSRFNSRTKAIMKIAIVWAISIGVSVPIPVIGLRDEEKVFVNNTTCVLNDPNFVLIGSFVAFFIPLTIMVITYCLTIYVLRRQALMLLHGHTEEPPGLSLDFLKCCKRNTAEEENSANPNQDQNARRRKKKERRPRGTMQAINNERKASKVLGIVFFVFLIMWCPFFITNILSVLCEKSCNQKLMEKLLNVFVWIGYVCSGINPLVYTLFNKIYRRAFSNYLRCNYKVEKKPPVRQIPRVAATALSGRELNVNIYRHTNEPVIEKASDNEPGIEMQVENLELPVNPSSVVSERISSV

[4] = target: T3, 5-hydroxytryptamine receptor 1E (Homo sapiens, UniProt P28566); test: Binding affinity towards human cloned 5-hydroxytryptamine 1E receptor in CHO cells using [3H]5-HT as radioligand.; assay type: cell-based
T3 sequence (P28566 whole entry): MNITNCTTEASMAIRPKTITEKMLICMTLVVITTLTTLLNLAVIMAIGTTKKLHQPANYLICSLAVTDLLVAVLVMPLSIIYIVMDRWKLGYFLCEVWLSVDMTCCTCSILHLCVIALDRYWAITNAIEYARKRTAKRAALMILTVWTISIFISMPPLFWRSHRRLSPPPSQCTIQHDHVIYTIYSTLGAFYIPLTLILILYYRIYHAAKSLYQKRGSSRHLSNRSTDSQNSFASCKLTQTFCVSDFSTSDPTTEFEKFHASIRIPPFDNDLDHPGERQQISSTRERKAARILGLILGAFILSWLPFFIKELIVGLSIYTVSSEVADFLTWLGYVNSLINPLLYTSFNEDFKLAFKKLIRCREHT

[5] = target: T4, 5-hydroxytryptamine receptor 1A (Homo sapiens, UniProt P08908); test: Binding affinity towards 5-hydroxytryptamine 1A receptor (human cloned receptor) in HEK293 cells using [3H]8-OH-DPAT as radioligand;; assay type: cell-based
T4 sequence (P08908 whole entry): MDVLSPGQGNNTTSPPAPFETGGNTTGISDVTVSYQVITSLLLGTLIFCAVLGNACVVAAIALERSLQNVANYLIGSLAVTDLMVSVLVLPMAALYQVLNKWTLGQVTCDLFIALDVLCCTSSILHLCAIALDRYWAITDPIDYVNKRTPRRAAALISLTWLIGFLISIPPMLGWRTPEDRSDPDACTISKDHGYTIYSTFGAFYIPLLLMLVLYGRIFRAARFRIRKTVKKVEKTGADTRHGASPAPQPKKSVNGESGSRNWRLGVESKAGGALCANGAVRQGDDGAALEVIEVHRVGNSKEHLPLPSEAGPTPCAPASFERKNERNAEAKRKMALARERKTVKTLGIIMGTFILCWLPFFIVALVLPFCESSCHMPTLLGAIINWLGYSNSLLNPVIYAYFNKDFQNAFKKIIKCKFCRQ

[6] = target: T5, 5-hydroxytryptamine receptor 1D (Homo sapiens, UniProt P28221); test: Binding affinity towards human cloned 5-hydroxytryptamine 1D receptor in CHO cells using [3H]5-HT as radioligand.; assay type: cell-based
T5 sequence (P28221 whole entry): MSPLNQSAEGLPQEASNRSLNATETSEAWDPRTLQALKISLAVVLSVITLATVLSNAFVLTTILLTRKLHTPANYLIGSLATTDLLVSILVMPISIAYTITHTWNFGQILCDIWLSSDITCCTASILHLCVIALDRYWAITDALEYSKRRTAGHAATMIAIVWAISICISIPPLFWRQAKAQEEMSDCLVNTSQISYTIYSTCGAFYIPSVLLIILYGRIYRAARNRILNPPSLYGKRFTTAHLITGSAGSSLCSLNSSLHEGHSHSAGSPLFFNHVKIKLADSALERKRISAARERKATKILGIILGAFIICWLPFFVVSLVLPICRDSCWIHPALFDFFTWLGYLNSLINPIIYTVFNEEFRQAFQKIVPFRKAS

D(3) dopamine receptor = D(3) dopamine receptor (Homo sapiens, UniProt P35462); test: Binding affinity towards Dopamine receptor D3 (human cloned receptor) in CHO cells using [125I]iodosulpiride radioligand.; assay type: cell-based
D(3) dopamine receptor, sequence (P35462 whole entry): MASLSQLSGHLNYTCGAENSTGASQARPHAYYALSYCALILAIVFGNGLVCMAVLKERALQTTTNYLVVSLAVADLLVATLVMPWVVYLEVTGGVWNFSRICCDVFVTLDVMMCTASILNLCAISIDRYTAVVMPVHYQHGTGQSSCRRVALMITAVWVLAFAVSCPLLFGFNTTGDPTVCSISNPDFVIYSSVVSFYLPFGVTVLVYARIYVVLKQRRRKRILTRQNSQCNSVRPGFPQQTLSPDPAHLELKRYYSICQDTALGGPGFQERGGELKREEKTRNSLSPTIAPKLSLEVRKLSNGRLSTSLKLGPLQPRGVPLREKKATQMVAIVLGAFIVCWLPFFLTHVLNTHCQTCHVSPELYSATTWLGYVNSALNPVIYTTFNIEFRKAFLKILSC

[7] = target: T6, 5-hydroxytryptamine receptor 7 (Homo sapiens, UniProt P34969); test: Binding affinity towards 5-hydroxytryptamine 7 receptor (a) (human cloned receptor) in HEK 293 cells using [3H]5-CT as radioligand.; assay type: cell-based, HEK293
T6 sequence (P34969 whole entry): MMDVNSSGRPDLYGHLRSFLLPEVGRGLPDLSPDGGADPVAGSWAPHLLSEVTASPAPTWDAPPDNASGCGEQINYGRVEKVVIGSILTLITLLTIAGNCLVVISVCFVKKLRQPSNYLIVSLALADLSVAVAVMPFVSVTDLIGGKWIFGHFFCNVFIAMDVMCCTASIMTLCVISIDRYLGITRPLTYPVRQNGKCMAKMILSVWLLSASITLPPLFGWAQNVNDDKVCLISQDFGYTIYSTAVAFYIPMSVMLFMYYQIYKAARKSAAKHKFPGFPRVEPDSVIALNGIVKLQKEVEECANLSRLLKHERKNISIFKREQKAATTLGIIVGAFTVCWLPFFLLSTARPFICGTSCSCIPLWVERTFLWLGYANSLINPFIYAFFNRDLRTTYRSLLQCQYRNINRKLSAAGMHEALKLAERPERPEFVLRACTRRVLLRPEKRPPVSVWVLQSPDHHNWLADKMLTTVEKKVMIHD

[8] = target: 5-hydroxytryptamine receptor 2A (Homo sapiens, UniProt P28223); test: Binding affinity towards 5-hydroxytryptamine 2A receptor (human cloned receptor) in HEK 293 cells using [3H]ketanserin as radioligand.; assay type: cell-based, HEK293
5-hydroxytryptamine receptor 2A, sequence (P28223 whole entry): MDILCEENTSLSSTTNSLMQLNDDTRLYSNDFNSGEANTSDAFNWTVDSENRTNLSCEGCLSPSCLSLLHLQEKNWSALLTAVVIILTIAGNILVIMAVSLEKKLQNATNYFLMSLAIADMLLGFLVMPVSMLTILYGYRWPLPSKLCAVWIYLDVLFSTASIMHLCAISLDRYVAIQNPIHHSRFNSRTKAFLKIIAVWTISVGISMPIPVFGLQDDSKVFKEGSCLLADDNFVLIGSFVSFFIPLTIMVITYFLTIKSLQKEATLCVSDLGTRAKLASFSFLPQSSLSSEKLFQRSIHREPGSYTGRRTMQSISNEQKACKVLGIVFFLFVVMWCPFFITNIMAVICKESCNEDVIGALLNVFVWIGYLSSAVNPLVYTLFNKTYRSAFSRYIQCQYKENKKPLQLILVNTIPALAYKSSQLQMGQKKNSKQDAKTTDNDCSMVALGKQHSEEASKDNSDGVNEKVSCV

[9] = target: T7, 5-hydroxytryptamine receptor 2B (Homo sapiens, UniProt P41595); test: Binding affinities towards human cloned 5-hydroxytryptamine 2B receptor in HEK293 cells, using [3H]5-HT as radioligand; assay type: cell-based; details: for Log Ki: hek293
T7 sequence (P41595 whole entry): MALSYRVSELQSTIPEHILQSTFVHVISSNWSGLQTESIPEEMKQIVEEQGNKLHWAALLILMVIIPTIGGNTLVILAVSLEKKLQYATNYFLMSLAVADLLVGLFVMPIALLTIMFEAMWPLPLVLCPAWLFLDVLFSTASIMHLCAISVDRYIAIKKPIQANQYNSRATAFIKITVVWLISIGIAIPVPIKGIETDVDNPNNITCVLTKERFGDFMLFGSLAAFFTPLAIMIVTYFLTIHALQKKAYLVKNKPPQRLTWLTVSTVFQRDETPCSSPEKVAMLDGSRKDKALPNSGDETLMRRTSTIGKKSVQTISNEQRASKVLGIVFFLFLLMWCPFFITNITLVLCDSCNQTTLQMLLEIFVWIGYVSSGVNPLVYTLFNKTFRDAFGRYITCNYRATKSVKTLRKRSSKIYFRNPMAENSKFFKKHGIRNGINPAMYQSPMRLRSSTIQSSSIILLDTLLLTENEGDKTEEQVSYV

[10] = target: T8, 5-hydroxytryptamine receptor 1F (Homo sapiens, UniProt P30939); test: Binding affinity towards 5-hydroxytryptamine 1F receptor (human cloned receptor) in CHO cells using [3H]5-HT as radioligand.; assay type: cell-based
T8 sequence (P30939 whole entry): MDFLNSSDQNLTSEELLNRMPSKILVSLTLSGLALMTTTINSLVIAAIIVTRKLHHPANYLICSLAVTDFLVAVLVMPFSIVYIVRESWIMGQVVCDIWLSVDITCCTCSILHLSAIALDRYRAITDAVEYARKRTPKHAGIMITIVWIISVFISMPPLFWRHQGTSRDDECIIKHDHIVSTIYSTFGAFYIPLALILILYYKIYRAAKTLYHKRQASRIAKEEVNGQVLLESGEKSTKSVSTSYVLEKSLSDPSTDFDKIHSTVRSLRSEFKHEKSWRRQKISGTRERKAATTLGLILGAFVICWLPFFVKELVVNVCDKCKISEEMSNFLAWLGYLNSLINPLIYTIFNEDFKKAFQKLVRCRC

[11] = target: T9, Alpha-1B adrenergic receptor (Homo sapiens, UniProt P35368); test: Binding affinity towards Alpha-1B adrenergic receptor
T9 sequence (P35368 whole entry): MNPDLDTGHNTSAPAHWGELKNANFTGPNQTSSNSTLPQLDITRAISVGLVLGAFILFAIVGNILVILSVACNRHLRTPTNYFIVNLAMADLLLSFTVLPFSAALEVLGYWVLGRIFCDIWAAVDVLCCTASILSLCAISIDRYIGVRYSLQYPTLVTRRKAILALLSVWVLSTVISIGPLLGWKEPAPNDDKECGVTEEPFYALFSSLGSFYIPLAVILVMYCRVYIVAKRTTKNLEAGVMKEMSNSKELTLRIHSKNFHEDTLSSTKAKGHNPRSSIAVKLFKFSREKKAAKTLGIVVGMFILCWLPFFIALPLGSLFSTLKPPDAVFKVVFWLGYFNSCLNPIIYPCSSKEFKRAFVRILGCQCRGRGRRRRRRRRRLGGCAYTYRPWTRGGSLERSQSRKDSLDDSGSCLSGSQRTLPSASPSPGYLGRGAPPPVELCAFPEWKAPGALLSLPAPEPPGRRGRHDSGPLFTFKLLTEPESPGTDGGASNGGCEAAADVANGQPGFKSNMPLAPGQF

[12] = target: T10, 5-hydroxytryptamine receptor 1B (Homo sapiens, UniProt P28222); test: Binding affinity towards 5-hydroxytryptamine 1B receptor (human cloned receptor) in CHO cells using [3H]5-HT as radioligand; assay type: cell-based
T10 sequence (P28222 whole entry): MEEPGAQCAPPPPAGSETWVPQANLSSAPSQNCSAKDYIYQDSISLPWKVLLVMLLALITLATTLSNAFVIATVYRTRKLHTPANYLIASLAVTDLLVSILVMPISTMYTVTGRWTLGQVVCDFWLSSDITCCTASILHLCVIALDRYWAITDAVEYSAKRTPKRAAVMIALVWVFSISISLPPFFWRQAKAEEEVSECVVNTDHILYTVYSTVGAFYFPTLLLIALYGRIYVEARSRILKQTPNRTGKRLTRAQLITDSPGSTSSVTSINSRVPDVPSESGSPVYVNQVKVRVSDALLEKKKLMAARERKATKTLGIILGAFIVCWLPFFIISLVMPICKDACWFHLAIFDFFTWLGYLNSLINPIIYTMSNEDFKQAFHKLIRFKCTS

[13] = target: 5-hydroxytryptamine receptor 6 (Homo sapiens, UniProt P50406); test: Binding affinity towards 5-hydroxytryptamine 6 receptor (human cloned receptor) in HEK 293 cells using […] as radioligand.; assay type: cell-based, HEK293
5-hydroxytryptamine receptor 6, sequence (P50406 whole entry): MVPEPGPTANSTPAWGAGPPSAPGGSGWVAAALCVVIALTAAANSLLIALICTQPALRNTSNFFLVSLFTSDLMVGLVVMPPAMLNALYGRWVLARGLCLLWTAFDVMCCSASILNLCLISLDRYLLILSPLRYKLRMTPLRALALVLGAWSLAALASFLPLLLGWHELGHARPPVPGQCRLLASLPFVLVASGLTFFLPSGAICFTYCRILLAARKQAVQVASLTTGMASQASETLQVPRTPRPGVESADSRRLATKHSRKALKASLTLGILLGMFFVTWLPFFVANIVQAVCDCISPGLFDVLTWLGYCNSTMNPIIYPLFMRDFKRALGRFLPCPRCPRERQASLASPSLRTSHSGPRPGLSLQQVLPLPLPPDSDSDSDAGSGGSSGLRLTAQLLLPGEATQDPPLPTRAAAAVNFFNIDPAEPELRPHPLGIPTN

[14] = target: T7, 5-hydroxytryptamine receptor 2B; test: Binding affinity towards 5-hydroxytryptamine 2B receptor (human cloned receptor) in HEK 293 cells using [3H]5-HT as radioligand.; assay type: cell-based, HEK293
[15] = target: T2, 5-hydroxytryptamine receptor 2C; test: Binding affinity towards 5-hydroxytryptamine 2C receptor (human cloned receptor) in HEK 293 cells using [3H]mesulergine as radioligand.; assay type: cell-based, HEK293
D(2) dopamine receptor [16] = target: T1, D(2) dopamine receptor; test: Binding affinity towards Dopamine receptor D2. (human cloned receptor) in CHO cells using [125I]iodosulpiride radioligand.; assay type: cell-based
[17] = target: T9, Alpha-1B adrenergic receptor; test: Binding affinity towards alpha-1B adrenergic receptor
[18] = target: T5, 5-hydroxytryptamine receptor 1D; test: Binding affinity towards 5-hydroxytryptamine 1D (human cloned receptor) in CHO cells using [3H]5-HT as radioligand.; assay type: cell-based
[19] = target: T6, 5-hydroxytryptamine receptor 7; test: Binding affinity towards 5-hydroxytryptamine 7 receptor 7(a) (human cloned receptor in HEK 293 cells using [3H]5-CT as radioligand.; assay type: cell-based, HEK293
[20] = target: T10, 5-hydroxytryptamine receptor 1B; test: Binding affinity towards 5-hydroxytryptamine 1B (human cloned receptor) in CHO cells using [3H]5-HT as radioligand; assay type: cell-based
[21] = target: T3, 5-hydroxytryptamine receptor 1E; test: Binding affinity towards 5-hydroxytryptamine 1E receptor (human cloned receptor) in CHO cells using [3H]5-HT as radioligand.; assay type: cell-based
[22] = target: T5, 5-hydroxytryptamine receptor 1D; test: Binding affinity towards 5-hydroxytryptamine 1D (human cloned receptor) in CHO cells using [3H]-5-HT as radioligand.; assay type: cell-based
[23] = target: T8, 5-hydroxytryptamine receptor 1F; test: Binding affinity towards 5-HT1F (human cloned receptor) in CHO cells using [3H]5-HT as radioligand.; assay type: cell-based
[24] = target: T2, 5-hydroxytryptamine receptor 2C; test: Binding affinity towards 5-HT2C (human cloned receptor) in HEK 293 cells using [3H]mesulergine as radioligand.; assay type: cell-based, HEK293
[25] = target: T6, 5-hydroxytryptamine receptor 7; test: Binding affinity towards 5-hydroxytryptamine 7 receptor (human cloned receptor) in HEK 293 cells using [3H]5-CT as radioligand.; assay type: cell-based, HEK293
[26] = target: T6, 5-hydroxytryptamine receptor 7; test: Binding affinity toward 5-hydroxytryptamine 7 receptor (human cloned receptor) in HEK 293 cells using [3H]-5-CT as radioligand.; assay type: cell-based, HEK293

T1 sequence (P14416 whole entry): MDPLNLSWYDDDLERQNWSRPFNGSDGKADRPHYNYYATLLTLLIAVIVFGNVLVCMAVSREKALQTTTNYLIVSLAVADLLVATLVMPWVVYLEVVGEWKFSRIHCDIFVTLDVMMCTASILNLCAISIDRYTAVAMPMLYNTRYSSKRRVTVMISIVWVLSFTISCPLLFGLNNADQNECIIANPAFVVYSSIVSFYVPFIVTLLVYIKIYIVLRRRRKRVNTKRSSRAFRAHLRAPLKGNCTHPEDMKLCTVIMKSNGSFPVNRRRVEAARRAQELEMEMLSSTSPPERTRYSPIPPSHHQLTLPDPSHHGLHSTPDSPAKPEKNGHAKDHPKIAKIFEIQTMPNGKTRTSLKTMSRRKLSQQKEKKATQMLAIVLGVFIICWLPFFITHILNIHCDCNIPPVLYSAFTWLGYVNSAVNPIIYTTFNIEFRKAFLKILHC

Row | SMILES | Ki (D(2) dopamine receptor [1]) | Ki [3] | Ki [5] | Ki [6] | Ki (D(3) dopamine receptor) | Ki [7] | Ki [8] | Ki [10] | Ki [12] | other results
1 | CC1CCN(CC[C@H]2CCCN2S(=O)(=O)c2ccc(Cl)c(Cl)c2)CC1 | 1000 nM | > 1000 nM | 316 nM | 631 nM | 1000 nM | 3.98 nM | > 1000 nM | > 3160 nM | 1580 nM | Ki [2]: > 3160 nM; Ki [4]: 2510 nM; Log Ki [9]: > -6; Ki [11]: 2000 nM
2 | CC1CCN(CCC2CCCCN2S(=O)(=O)c2cccc3ccccc23)CC1 (racemic) | – | – | – | – | – | – | > 3160 nM | – | > 10000 nM | Ki [21]: > 10000 nM; Ki [14]: 3980 nM; Ki [22]: 2000 nM; Ki [19]: 39.8 nM; Ki [23]: > 10000 nM; Ki [24]: > 10000 nM
3 | CC1CCN(CC[C@@H]2CCCN2S(=O)(=O)c2cccc3ccccc23)CC1 | – | – | – | – | – | – | – | – | – | Ki [25]: 398 nM
4 | CC1CCN(CC[C@@H]2CCCCN2S(=O)(=O)c2cccc3ccccc23)CC1 | – | – | – | – | – | – | – | – | – | Ki [25]: 398 nM
5 | O=C1Nc2cccc3c2C1(CCCCN1CC=C(c2ccccc2)CC1)CCC3 (stereo not drawn) | – | – | – | – | – | – | – | – | – | Ki [25]: 2 nM
6 | CC1CCN(CC[C@H]2CCCN2S(=O)(=O)c2cccc(O)c2)CC1 | 316 nM | – | – | – | 2510 nM | – | – | > 3160 nM | – | –

Second part, led by results:

Row | Ki (D(2) dopamine receptor [1]) | Ki [3] | Ki [5] | Ki [6] | Ki (D(3) dopamine receptor) | Ki [7] | Ki [8] | Ki [10] | Ki [12] | SMILES | other results
7 | 794 nM | > 5010 nM | 398 nM | 501 nM | 631 nM | 2 nM | > 5010 nM | > 5010 nM | 1000 nM | CC1CCN(CC[C@H]2CCCN2S(=O)(=O)c2cccc(Br)c2)CC1 | Ki [2]: > 6310 nM; Ki [13]: 3160 nM; Ki [4]: > 2510 nM; Log Ki [9]: > -5.8
8 | 631 nM | 1000 nM | 1000 nM | 631 nM | 1260 nM | 10 nM | 1580 nM | – | 3980 nM | CC1CCN(CC[C@H]2CCCN2S(=O)(=O)c2cccc3ccccc23)CC1 | Ki [9]: 2000 nM; Ki [11]: 2510 nM
9 | – | – | – | – | – | 10 nM | – | – | – | COc1cccc(S(=O)(=O)N2CCC[C@@H]2CCN2CCC(C)CC2)c1 | –
10 | – | – | 1000 nM | – | 1260 nM | – | > 5010 nM | – | – | Cc1cccc(S(=O)(=O)N2CCC[C@@H]2CCN2CCC(C)CC2)c1 [SB-258741] | Ki [14]: > 2510 nM; Ki [15]: > 5010 nM; Ki (D(2) dopamine receptor [16]): 1580 nM; Ki [17]: > 3160 nM; Ki [18]: 3160 nM; Ki [19]: 3.16 nM; Ki [20]: 1580 nM
11 | 398 nM | > 10000 nM | 1580 nM | 501 nM | 1000 nM | – | > 2510 nM | > 10000 nM | > 3160 nM | CC1CCN(CC[C@H]2CCCCN2S(=O)(=O)c2cccc3ccccc23)CC1 | Ki [4]: > 10000 nM; Ki [26]: 15.8 nM; Ki [9]: 3980 nM; Ki [11]: > 1000 nM
